In one test the target is T1, Caspase-3 (Homo sapiens, UniProt P42574).
T1 sequence (P42574 whole entry): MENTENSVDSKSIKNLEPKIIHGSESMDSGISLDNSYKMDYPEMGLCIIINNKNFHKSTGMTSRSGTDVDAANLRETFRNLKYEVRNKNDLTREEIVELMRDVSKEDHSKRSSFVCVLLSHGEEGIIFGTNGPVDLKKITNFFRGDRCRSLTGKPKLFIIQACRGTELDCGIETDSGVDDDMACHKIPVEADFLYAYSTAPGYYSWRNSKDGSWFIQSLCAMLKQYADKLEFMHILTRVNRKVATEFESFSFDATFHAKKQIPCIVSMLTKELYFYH
The test can be described thus: Inhibition of human recombinant caspase-3 using Ac-DEVD-AMC as substrate assessed as accumulation of AMC preincubated for 10 mins followed by substrate addition measured after 10 mins by fluorescence assay.

In another test the target is T2, Caspase-7 (Homo sapiens, UniProt P55210).
T2 sequence (P55210 whole entry): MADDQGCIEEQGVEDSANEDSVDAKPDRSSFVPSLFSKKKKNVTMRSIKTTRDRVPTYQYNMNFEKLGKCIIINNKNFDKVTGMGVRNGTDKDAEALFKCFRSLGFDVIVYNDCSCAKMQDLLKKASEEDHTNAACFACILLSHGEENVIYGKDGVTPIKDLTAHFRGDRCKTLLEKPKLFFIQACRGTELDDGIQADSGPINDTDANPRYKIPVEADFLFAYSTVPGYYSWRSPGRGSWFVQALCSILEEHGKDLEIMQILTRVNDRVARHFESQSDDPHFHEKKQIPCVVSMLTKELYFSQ
The test can be described thus: Inhibition of human recombinant caspase-7 using Ac-DEVD-AMC as substrate assessed as accumulation of AMC preincubated for 10 mins followed by substrate addition measured after 10 mins by fluorescence assay.

Molecules are shown by their SMILES. A value given as a limit tells only on which side of the number the result lay.

For orientation: IC50 means the point on the concentration scale where inhibition reaches its midpoint.

Consider `COC[C@@H]1C[C@H](OC)CN1S(=O)(=O)c1ccc2c(c1)C(=O)C(=O)N2`, for which the half-inhibitory concentration (IC50) at Caspase-3 and at Caspase-7 was above 500 µM in each case.

For `COC[C@@H]1CC[C@@H](COC)N1S(=O)(=O)c1ccc2c(c1)C(=O)C(=O)N2`, the half-maximal inhibitory concentration (IC50) at Caspase-3 and on Caspase-7 was above 500 µM in each case.

Regarding `COC[C@@H]1C[C@H](C(F)(F)F)CN1S(=O)(=O)c1ccc2c(c1)C(=O)C(=O)N2`, on Caspase-3, the IC50 came to 101 µM.

As to `COC[C@@H]1C[C@@H](OCCOCCOCCOCCO)CN1S(=O)(=O)c1ccc2c(c1)C(=O)C(=O)N2`, the half-maximal inhibitory concentration (IC50) on Caspase-3 and on Caspase-7 was above 500 µM in each case.

Take `COC[C@@H]1C[C@H](OCCOCCOCCOCCO)CN1S(=O)(=O)c1ccc2c(c1)C(=O)C(=O)N2`: the IC50 at Caspase-3 and at Caspase-7 was above 500 µM each time.

`CCCCN1C(=O)C(=O)c2cc(S(=O)(=O)N3C[C@@H](OCCOCCOCCOCCO)C[C@H]3COC)ccc21`: the concentration for half-maximal inhibition (IC50) on Caspase-3 and on Caspase-7 was above 500 µM each time.

Take `COC[C@H]1CC[C@@H](COC)N1S(=O)(=O)c1ccc2c(c1)C(=O)C(=O)N2`: the IC50 on Caspase-3 and at Caspase-7 was above 500 µM each time.

With `COC[C@@H]1C[C@@H](C(F)(F)F)CN1S(=O)(=O)c1ccc2c(c1)C(=O)C(=O)N2`, the IC50 on Caspase-3 and at Caspase-7 was above 500 µM throughout.

With `COC[C@@H]1C[C@@H](OC)CN1S(=O)(=O)c1ccc2c(c1)C(=O)C(=O)N2`, the IC50 at Caspase-3 and on Caspase-7 was above 500 µM throughout.
